Source: article PMC12723449, “From Pharmacophore to Warhead: NAD^+‐Targeting Triazoles as Mechanism‐Based Sirtuin Inhibitors” (Angewandte Chemie (International Ed. in English), 2025)

Tests used:
SIRT3 = target: T1, SIRT3 (Homo sapiens, UniProt Q9NTG7); experiment: Fluorescence-based deacetylation assay (ZMAL-assay), SIRT3; type: biochemical; settings: 37 °C, assay limit 0.10 µM; for IC50: read-out: SIRT3 (deac.) IC50
T1 construct: Human SIRT3118-395 was expressed and purified as previously described.[5]; made in house
T1 sequence (Q9NTG7 118-395 limits assumed): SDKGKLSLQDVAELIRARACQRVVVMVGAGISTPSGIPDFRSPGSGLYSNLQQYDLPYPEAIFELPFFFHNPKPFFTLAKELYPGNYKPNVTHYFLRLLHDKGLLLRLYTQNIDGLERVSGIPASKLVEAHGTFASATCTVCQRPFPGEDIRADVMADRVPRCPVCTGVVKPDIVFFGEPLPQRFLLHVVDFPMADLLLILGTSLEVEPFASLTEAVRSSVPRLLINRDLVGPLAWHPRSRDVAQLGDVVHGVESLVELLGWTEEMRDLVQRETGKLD
Description: (§1) Determination of IC50 values (SIRT1, SIRT2, SIRT3) via fluorescence-based deacetylation assay […]
(§2) The fluorescence-based deacetylation assay was conducted in a black 384-well microplate (OptiPlate-384 F, PerkinElmer) with a total volume of 30 µL per well and a final DMSO concentration of 2% (v/v) according to a […]
(§3) concentration of 100 nM) in assay buffer (50 mM Tris, 137 mM NaCl, 2.7 mM KCl, 1m MgCl2, 0.01% Tween, 0.05 mg/mL BSA, 0.2 mM TCEP, pH 8.0), 5 µL of substrate (ZMAL, final concentration of 10.5 µM), 5 µL of NAD+ (final concentration of 500 µM) and 10 µL of inhibitor solution (final concentration of 30 µM – 0.014 µM, serial 1:3 dilutions) was incubated at 37 °C and 300 rpm for 4 h. A solution of trypsin (final concentration of 0.5 mg/mL) and nicotinamide (final concentration of 4 mM) was added and incubated at 37 °C and 300 rpm for 30 min to stop the reaction. Samples with 2% (v/v) DMSO instead of inhibitor were prepared as a positive control, and samples with 2% (v/v) DMSO instead of SIRT enzyme were prepared as a negative control. Fluorescence intensity was measured with a microplate reader (λEx = 380-10 nm, λEm = 460 nm, BMG POLARstar Optima, BMG Labtech, Germany). IC50 values were then determined using a nonlinear regression fit with Origin Pro 2019 software. All experiments were performed at least in duplicates. […]

SIRT2 [1] = target: T2, SIRT2 (Homo sapiens, UniProt Q8IXJ6); experiment: Fluorescence-based demyristoylation assay (BSA-Assay); type: biochemical
T2 construct: For assay experiments, strep-tagged human SIRT1134−747 and SIRT256-356 were expressed and purified as previously; Strep-tag; made in house; host or cells: E. coli BL21 Star (DE3)
T2 sequence (Q8IXJ6 56-356 limits assumed): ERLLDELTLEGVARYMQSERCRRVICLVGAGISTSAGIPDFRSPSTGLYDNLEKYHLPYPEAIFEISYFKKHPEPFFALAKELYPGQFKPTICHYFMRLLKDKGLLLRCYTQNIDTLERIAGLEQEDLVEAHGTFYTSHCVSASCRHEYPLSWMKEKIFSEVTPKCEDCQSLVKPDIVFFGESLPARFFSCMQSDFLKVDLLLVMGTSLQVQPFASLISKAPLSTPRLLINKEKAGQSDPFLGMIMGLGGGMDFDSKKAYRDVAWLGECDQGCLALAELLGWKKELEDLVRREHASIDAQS
Description: Determination of IC50 values (SIRT2) via fluorescence-based demyristoylation assay (BSA-Assay) The fluorescence-based demyristoylation assay was conducted in a continuous manner in a black 384-well microplate (OptiPlate-384 F, PerkinElmer) with a total volume of 40 µL per well and a final DMSO concentration of 5% (v/v), following a published procedure.[9] A mixture of 14 µL SIRT2 (final concentration of 1 nM) in assay buffer (20 mM Tris, 150 mM NaCl, […], pH 7.8) freshly supplemented with 2 mg/mL of BSA, 14 µL of substrate (F4, KM = 33 ± 5 nM[9], final concentration of 40 nM) and 2 µL of inhibitor solution (final concentration of 100 µM – 0.002 µM, serial 1:2 or 1:4 dilutions) was incubated at 25 °C and 350 rpm for 5 min. Samples with 5% (v/v) DMSO instead of inhibitor were measured as a positive control, and samples with assay buffer and 5% (v/v) DMSO instead of SIRT2 were measured as a negative control. The reaction was started with the addition of 10 µL NAD+ (final concentration of 500 µM) and the product formation was immediately monitored by the change of the fluorescence intensity at 25 °C for 20 min. For NAD+ preincubation experiments, instead of the substrate, 10 µL of NAD+ (final concentration of 500 µM) was added to the solution and incubated at 25 °C and 350 rpm for 15 min. The reaction was started with the addition of 14 µL substrate (final concentration of 40 nM) and the product formation was immediately monitored by the change of the fluorescence intensity at 25 °C every 60 s for 20 min using a microplate reader (λEx = 485 nm, λEm = 530-10 nm, BMG POLARstar Optima, BMG Labtech, Germany).
The activity was normalized using the positive control as 100% and the negative control as 0%. The normalized activity (v/v0) was plotted as a function of the logarithm of the inhibitor concentration [I], and a nonlinear fit was performed according to the following equation to determine the IC50 value.[9] […]

SIRT1 = target: T3, SIRT1 (Homo sapiens, UniProt Q96EB6); experiment: Fluorescence-based deacetylation assay (ZMAL-assay), SIRT1; type: biochemical; settings: 37 °C, assay limit 0.10 µM; for IC50: read-out: SIRT1 (deac.) IC50
T3 construct: For assay experiments, strep-tagged human SIRT1134−747 and SIRT256-356 were expressed and purified as previously; Strep-tag; made in house; host or cells: E. coli BL21 Star (DE3)
T3 sequence (Q96EB6 134-747 limits assumed): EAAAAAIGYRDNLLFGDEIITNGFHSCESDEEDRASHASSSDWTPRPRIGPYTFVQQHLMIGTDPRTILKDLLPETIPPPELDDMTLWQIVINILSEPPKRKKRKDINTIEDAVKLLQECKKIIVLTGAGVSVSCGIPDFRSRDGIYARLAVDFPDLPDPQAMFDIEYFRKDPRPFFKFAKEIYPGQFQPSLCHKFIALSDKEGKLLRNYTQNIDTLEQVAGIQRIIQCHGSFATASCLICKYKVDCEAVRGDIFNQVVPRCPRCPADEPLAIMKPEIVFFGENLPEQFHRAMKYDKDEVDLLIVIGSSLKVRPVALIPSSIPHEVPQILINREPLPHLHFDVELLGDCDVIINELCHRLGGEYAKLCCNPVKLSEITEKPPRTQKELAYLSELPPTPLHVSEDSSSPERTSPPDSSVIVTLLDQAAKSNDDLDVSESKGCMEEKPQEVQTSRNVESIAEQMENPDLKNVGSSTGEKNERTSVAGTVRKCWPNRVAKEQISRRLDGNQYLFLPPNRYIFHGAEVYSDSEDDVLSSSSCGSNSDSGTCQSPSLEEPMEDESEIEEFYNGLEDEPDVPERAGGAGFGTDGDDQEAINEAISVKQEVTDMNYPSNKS
Description: as §1, §2, §3

SIRT2 [2] = target: T2, SIRT2; experiment: Fluorescence-based deacetylation assay (ZMAL-assay), SIRT2; type: biochemical; settings: 37 °C, assay limit 0.10 µM, read-out: SIRT2 (deac.) IC50
Description: as §1, §2, §3

SIRT2 [3] = target: T2, SIRT2; experiment: Differential scanning fluorimetry (DSF) / fluorescence thermal shift assay; type: binding; settings: 10 µM compound, with NAD+ addition
Description: Differential scanning fluorimetry (DSF) assay
Differential scanning fluorimetry assays were performed in white 96-well plates (Hard-Shell PCR Plates, BioRad, USA) with a total volume of 20 µL per well and a final DMSO concentration of 5% (v/v), following a published
A solution of 10 µL SIRT2 (final concentration of 6.0 µM) and SYPRO Orange (5x, Sigma-Aldrich, Germany) in assay buffer (25 mM Tris-HCl, 150 mM NaCl, 1 mM DTT, pH 8.0) was mixed with 10 µL of compound and incubated at 25 °C and 350 rpm for 5 min. Where applicable, NAD+ was added to a final concentration of 2.5 mM. Fluorescence
(C1000 Touch™ Thermal Cycler, CFX96™ Real-Time System, BioRad, USA). Melting temperatures were determined using GraphPad Prism, following a published procedure.[6]

[4] = target: T4, NanoLuc–SIRT2 fusion protein in HEK293T cells (Homo sapiens, UniProt Q8IXJ6); experiment: Kinetic NanoBRET washout assay (target residence time); type: cell-based; settings: 8 µM (10 × EC50), 2 h preincubation, 2 h washout
T4 construct: HEK293T cells stably expressing the NanoLuc-SIRT250-364-fusion target protein were seeded into the coated plates; expressed in transfected cells; host or cells: HEK293T (stably expressing)
T4 sequence (Q8IXJ6 50-364 limits assumed): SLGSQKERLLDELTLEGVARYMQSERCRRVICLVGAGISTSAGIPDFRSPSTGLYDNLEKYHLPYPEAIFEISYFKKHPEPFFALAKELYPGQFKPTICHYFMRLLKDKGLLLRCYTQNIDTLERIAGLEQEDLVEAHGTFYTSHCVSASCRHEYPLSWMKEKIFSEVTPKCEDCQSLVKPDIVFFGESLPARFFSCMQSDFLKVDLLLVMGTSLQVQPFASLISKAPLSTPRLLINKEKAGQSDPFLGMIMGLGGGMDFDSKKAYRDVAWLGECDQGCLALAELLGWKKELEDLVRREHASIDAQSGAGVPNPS
Description: NanoBRET washout assay for determination of target residence time
A NanoBRET-based washout assay was used to assess the target residence time of inhibitors for SIRT2 in living cells. White, flat-bottom 96-well plates (PerkinElmer) were pre-coated with poly-L-lysine (Sigma-Aldrich) to enhance cell adherence. Briefly, each well was treated with poly-L-lysine solution for 5 min at room temperature, followed by removal of the coating solution and air-drying before seeding.
Cells were treated with the indicated inhibitor
After incubation, the inhibitor-containing medium was aspirated, and a washout procedure was performed to remove unbound inhibitor. Each well was washed twice by sequential addition and removal of 100 µL Opti-MEM (Thermo Fisher Scientific). Following the final wash, 90 µL Opti-MEM was added per well, followed by 100 µL of 2× Nano-Glo® substrate solution (Promega) and 10 µL of 20× SIRT2-Tracer solution.
BRET measurements were recorded kinetically using a Tecan Spark® plate reader equipped with donor (460 nm)
The BRET ratio was monitored over time to track the re-binding of the

[5] = target: T5, NanoLuc–SIRT2 fusion protein in HEK293T cells (Homo sapiens, UniProt Q8IXJ6); experiment: NanoBRET cellular target engagement assay; type: cell-based; settings: without digitonin
T5 construct: transfected HEK293T cells expressing the NanoLuc-tagged SIRT250-356 fusion protein were used instead of transient; expressed in transfected cells; host or cells: HEK293T (stably transfected)
T5 sequence (Q8IXJ6 50-356 limits assumed): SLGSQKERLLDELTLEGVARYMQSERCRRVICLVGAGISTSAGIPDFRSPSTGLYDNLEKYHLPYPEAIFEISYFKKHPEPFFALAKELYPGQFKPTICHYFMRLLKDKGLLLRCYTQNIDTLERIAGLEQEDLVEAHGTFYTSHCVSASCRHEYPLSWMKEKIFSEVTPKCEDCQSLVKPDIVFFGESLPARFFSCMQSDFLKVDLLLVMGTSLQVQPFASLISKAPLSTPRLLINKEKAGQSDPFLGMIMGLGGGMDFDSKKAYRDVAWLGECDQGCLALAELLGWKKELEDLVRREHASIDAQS
Description: The NanoBRET target engagement assay was performed as previously described[2] with the modification that stably transfected HEK293T cells expressing the NanoLuc-tagged SIRT250-356 fusion protein were used instead of transient transfection. Briefly, HEK293T-NLuc- SIRT250-356 cells were cultured under standard conditions (37 °C, 5% CO2) in DMEM supplemented with 10% fetal bovine serum, 2 mM glutamine, and 300 µg/mL hygromycin as a selection marker. For the assay, cells were trypsinized, resuspended in Opti-MEM® reduced serum medium, and adjusted to a concentration of 2 × 10^5 cells per mL. […]
µM was used. Serially diluted inhibitor and tracer were added to the cell suspension, and 100 μL were seeded into 96-well white, sterile, nonbinding surface plates. To evaluate the cellular permeability of LTDi-1 (6), the non-ionic detergent digitonin (50 µg/ml) was added. Plates were incubated at 37 °C with 5% CO2 for 2 h. For BRET measurements, NanoBRET NanoGlo Substrate (Promega cat. #N1571) was added to the wells according to the […]
All measurements were performed using the 2102 EnVisionTM Multilabel Reader (PerkinElmer), equipped with a 460 nm filter (donor) and a 615 nm filter (acceptor). The BRET ratio was calculated as the ratio of acceptor to donor signal, and data were normalized to vehicle-treated controls. Apparent intracellular binding affinities (EC50 values) were determined by fitting dose-response curves using nonlinear regression analysis in GraphPad Prism. […]

[6] = target: BT-6 (biotinylated analogue of compound 6); experiment: BLI; SIRT2 (25–400 nM) incubated 1 h with BT-6 (500 nM) without NAD+, then immobilised on streptavidin-coated biosensors; dissociation followed
[7] = target: BT-6 (biotinylated analogue of compound 6); experiment: BLI; SIRT2 (25–400 nM) incubated 1 h with BT-6 (500 nM) and NAD+ (500 µM), then immobilised on streptavidin-coated biosensors; dissociation followed
[8] = 15 min NAD+ preincubation, read-out: IC50, SIRT2 demyristoylation after NAD+ preincubation
[9] = BSA-Assay, 25 °C, read-out: SIRT2 (demyr.) IC50

CCCCCCCCCCCCc1cn(CCCC[C@H](NC(=O)[C@H](CCCCN)NC(C)=O)C(N)=O)nn1 [Compound 6a]
IC50 (SIRT3): 8200 ± 400 nM | IC50 (SIRT2 [1]; [8]): 36 ± 2 nM | IC50 (SIRT2 [1]; [9]): 460 ± 40 nM | IC50 (SIRT1): 230 ± 20 nM | IC50 (SIRT2 [2]): < 100 nM

CCCCCCCCCCCCc1cn(CCC[C@H](NC(=O)[C@H](CCCCN)NC(=O)[C@@H]2CCCN2C(=O)[C@H](CC(C)C)NC(=O)[C@H](C)NC(=O)[C@H](CCC(=O)O)NC(C)=O)C(=O)N[C@H](C(=O)NCC(=O)NCC(N)=O)[C@@H](C)O)nn1 [Compound 5]
IC50 (SIRT3): 3300 ± 200 nM | ΔTm at 10 µM (SIRT2 [3]): 9.9 °C | IC50 (SIRT2 [1]; [8]): 760 ± 250 nM | IC50 (SIRT2 [1]; [9]): 1940 ± 510 nM | IC50 (SIRT1): 14200 ± 1500 nM | IC50 (SIRT2 [2]): < 100 nM

Cc1cc(C)nc(SCC(=O)Nc2ncc(Cc3cccc(OCc4cn(Cc5ccc(OCCN6CCOCC6)cc5)nn4)c3)s2)n1 [Compound 2, reference compound]
SIRT3 (deac.) IC50 (SIRT3): n.i. | IC50 (SIRT2 [1]; [9]): 50 ± 10 nM | SIRT1 (deac.) IC50 (SIRT1): n.i. | IC50 (SIRT2 [2]): 120 ± 10 nM

CCCCCCCCCCCCc1cn(CCCC[C@H](NC(=O)[C@H](CCCCN)NC(=O)[C@@H]2CCCN2C(C)=O)C(=O)N[C@H](C(N)=O)[C@@H](C)O)nn1 [Compound 6b]
inhibition after washout [4]: retained full inhibition throughout | extent of cellular target engagement [5]: complete target engagement

B1: Sirtuin 2 (SIRT2) (enzyme)
chain: MAEPDPSHPLETQAGKVQEAQDSDSDSEGGAAGGEADMDFLRNLFSQTLSLGSQKERLLDELTLEGVARYMQSERCRRVICLVGAGISTSAGIPDFRSPSTGLYDNLEKYHLPYPEAIFEISYFKKHPEPFFALAKELYPGQFKPTICHYFMRLLKDKGLLLRCYTQNIDTLERIAGLEQEDLVEAHGTFYTSHCVSASCRHEYPLSWMKEKIFSEVTPKCEDCQSLVKPDIVFFGESLPARFFSCMQSDFLKVDLLLVMGTSLQVQPFASLISKAPLSTPRLLINKEKAGQSDPFLGMIMGLGGGMDFDSKKAYRDVAWLGECDQGCLALAELLGWKKELEDLVRREHASIDAQSGAGVPNPSTSASPKKSPPPAKDEARTTEREKPQ
koff [6]: 0.0071 s⁻¹ | koff [7]: 0.00026 s⁻¹
